Reference: patent US5641666A, “Soraphen A resistant fungi and acetyl-CoA carboxylase” (priority 1993, dated 1997)
In brackets after ≈: the same amount, converted by molar mass.

Columns and labels:
YS 18 yeast cells = experiment: Growth curves of yeast in liquid YPD medium with soraphen A (OD600, viable cell titer); type: cell-based, Saccharomyces cerevisiae
Protocol: Saccharomyces cerevisiae strain YS 18 (MATeα; his 3-11, 3-15; leu 2-3, 2-112; ura 3-Δ5; can^R; cir^+) is chosen as the wild-type. YHV 18 (MATa; his 3-11, 3-15; leu 2-3, 2-112; ura 3-Δ5; canst; cir^+) is isolated after a mating type switch of YS 18 and is therefore isogenic.
100 ml YPD medium in a 500 ml flask is inoculated with about 10^7 YS 18 yeast cells/ml and incubated for growth at 180 rpm at 30° C. Before the addition of soraphen A at time point 0, the cells have already been incubated for 1 hour. The control is treated identically, but receives no soraphen A. Total cell numers are monitored by measuring the OD600. The number of viable cells called the […] is determined by plating on YPD plates. The number of soraphen A resistant cells is counted by plating on YPD-SOR plates containing the same soraphen A concentration as in the flask.

[1] = test system: diploids from the backcrosses of soraphen A resistant yeast strains; experiment: Determination of the minimal inhibitory concentration (MIC) on YPD-SOR plates, diploids from backcrosses of soraphen A resistant strains; type: cell-based, Saccharomyces cerevisiae; conditions: diploids from backcrosses vs wild-type
Protocol: In a first step all of the mutants are backcrossed with the wild-type strain of the opposite mating type, the diploid strains are sporulated and the asci are subjected to tetrad analysis. From each cross at least six complete tetra are examined and all of them are found to segregate 2:2 for soraphen A resistance and soraphen A sensitivity. This indicates mutations at a single genetic locus.
In another step the MIC of the dipbids from the backcrosses is determined.
Yeast colonies are grown for 2 days at 30° C. on a YPD plate and replica pated on a set of YPD-SOR plates. The following soraphen A concentrations are used: 0 μg/ml, 0,35 μg/ml, 0,76 μg/ml, 1,5 μg/ml, 3,13 μg/ml 6,7 μg/ml, 15,45 μg/ml and 54,5 μg/ml. After growth for 24 hours at 30° C. the plates are inspected for growth.

fungi = conditions: cited from earlier work
acetyl-CoA carboxylase = conditions: cited from earlier work
[2] = test system: strains YS 18 and YHV 18 (culture A); experiment: Plating of culture A on YPD-SOR-10; type: cell-based, Saccharomyces cerevisiae; conditions: 10 μg/ml soraphen A, 30° C., 3 days
Protocol: YPD-SOR-10 is YPD medium supplemented with 10 μg/ml soraphen A.
Each of the isogenic strains YS 18 and YHV 18 is grown in 5 ml of YPD to late exponential phase. The culture is diluted 10^4 fold to give culture A the viable cell number of which is determined. Twenty tubes each containing 5 ml of YPD are inoculated with 10 μl of culture A, which corresponds to about 10 cells, and are incubated at 28° C. until a density of 10^7 cells/ml is attained. 1 ml aliquots of each of the tubes are plated on YPD-SOR-10 and the plates are incubated at 30° C. for 3 days. To ensure isolation of independent mutants from each of the 20 YPD-SOR-10 plates only colonies with different shape or sizes are selected. Mutant colonies are restreaked twice on YPD before storing them as glycerol stock cultures at -70° C.
To exclude the presence of soraphen A resistant routants at the beginning of the cultivation of culture A, the remainder of culture A is plated on YPD-SOR-10 and incubated at 30° C. for 3 days.

bacteria = conditions: cited from earlier work

## COC1/C=C/C(C)C2OC(O)(C(C)C(=O)OC(c3ccccc3)CCCCC1OC)C(OC)C(O)C2C (centres unmarked) [soraphen A]
YS 18 yeast cells; Saccharomyces cerevisiae, YS 18 wild-type, YPD, 30° C., 180 rpm, read-out: minimal inhibitory concentration (MIC) as determined from the growth curves
  MIC: 0.1 µg/mL (≈ 0.192 µM)
YS 18 yeast cells; YS 18, YPD, 30° C., thereafter growth recovers due to soraphen A resistant mutants
  duration of complete inhibition of growth: approximately 40 hours
YS 18 yeast cells; YS 18, during the first 20 hours
  cell killing (viable cell counts): extensive cell killing occurs
[1]
  sensitivity of the diploids compared with the wild-type strain: None of the diploids is as sensitive to soraphen A as the wild-type strain
fungi
  activity as a fungicide: strong activity as a fungicide
acetyl-CoA carboxylase
  interference with acetyl-CoA carboxylase: shown to interfere with acetyl-CoA carboxylase
[2]
  growth of colonies: No growth of colonies is observed
bacteria
  effect on bacteria: without effect on bacteria
